Laboratory results as given in ChEMBL document CHEMBL1158575, “Glutarimide alkaloids and a terpenoid benzoquinone from Cordia globifera” (J Nat Prod, 2010).
The source made the active and inactive calls. The rule behind the calls is not given here.

Experiments:
A549 = assay: Cytotoxicity against human A549 cells MTT assay; assay type: functional, cell-based
HepG2 = assay: Cytotoxicity against human HepG2 cells MTT assay; assay type: functional, cell-based
MOLT-3 = assay: Cytotoxicity against human MOLT3 cells XTT assay; assay type: functional, cell-based
[1] = (§1) Cytotoxicity against human HuCCa1 cells MTT assay; assay type: functional, cell-based; conditions: HuCC-A1
RAW264.7 = assay: Inhibition of superoxide anion radical formation in mouse RAW264.7 cells by xanthine/xanthine oxidase assay; assay type: functional, cell-based
HuCC-A1 = assay: as §1; assay type: functional, cell-based
HL-60 = assay: Suppression of TPA-induced superoxide anion generation in differentiated human HL60 cells at 100 uM; assay type: functional

Compound | IC50 (A549) [µM] | IC50 (HepG2) [µM] | IC50 (MOLT-3) [µM] | IC50 [1] [µM] | Activity (A549) | Activity (HepG2) | IC50 (RAW264.7) [µM] | Activity (HuCC-A1) | Activity (HL-60) [%]
C[C@@]12CC3=C(C[C@H]1[C@]1(C)C[C@@H]1C2)C(=O)C=CC3=O [GLOBIFERANE] | 149 | 149 | 3.7 | 66 | – | – | – | – | –
CC(=O)N[C@H]1CCC(=O)N(CC(=O)c2ccccc2)C1=O [CORDIARIMIDE A] | – | – | 145 | – | inactive | inactive | 54.1 | inactive | –
CC(=O)N[C@H]1CCC(=O)N(C[C@H](O)c2ccccc2)C1=O [CORDIARIMIDE B] | – | – | 44.5 | – | inactive | inactive | 21.7 | inactive | 54
